Source: ChEMBL document CHEMBL1156697, “Investigations concerning the COX/5-LOX inhibiting and hydroxyl radical scavenging potencies of novel 4,5-diaryl isoselenazoles” (Eur J Med Chem, 2008)

What was measured:
[1] = Inhibition of bovine 5LOX
[2] = biological target: T1, Prostaglandin G/H synthase 1 (Bos taurus, UniProt O62664); test: Inhibition of bovine COX1
T1 sequence (O62664 whole entry): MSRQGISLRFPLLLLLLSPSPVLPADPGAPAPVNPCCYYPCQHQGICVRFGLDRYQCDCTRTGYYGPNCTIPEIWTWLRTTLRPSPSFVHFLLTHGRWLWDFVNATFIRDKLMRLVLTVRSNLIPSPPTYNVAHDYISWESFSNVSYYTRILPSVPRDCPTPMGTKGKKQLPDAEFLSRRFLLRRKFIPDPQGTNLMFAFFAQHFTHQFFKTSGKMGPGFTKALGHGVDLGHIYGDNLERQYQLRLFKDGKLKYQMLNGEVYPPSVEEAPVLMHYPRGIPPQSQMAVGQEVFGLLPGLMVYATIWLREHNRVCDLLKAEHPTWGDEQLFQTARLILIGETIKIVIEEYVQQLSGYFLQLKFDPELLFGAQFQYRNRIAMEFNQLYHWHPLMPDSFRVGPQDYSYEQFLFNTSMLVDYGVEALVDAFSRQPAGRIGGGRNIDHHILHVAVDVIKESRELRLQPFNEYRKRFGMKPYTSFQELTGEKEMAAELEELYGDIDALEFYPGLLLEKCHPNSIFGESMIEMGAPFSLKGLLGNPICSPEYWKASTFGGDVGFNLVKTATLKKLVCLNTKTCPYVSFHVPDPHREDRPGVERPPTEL

[3] = Antioxidant activity assessed as hydroxyl radical scavenging activity at 100 uM; assay type: functional
[4] = biological target: T2, Prostaglandin G/H synthase 2 (Homo sapiens, UniProt P35354)
T2 sequence (P35354 whole entry): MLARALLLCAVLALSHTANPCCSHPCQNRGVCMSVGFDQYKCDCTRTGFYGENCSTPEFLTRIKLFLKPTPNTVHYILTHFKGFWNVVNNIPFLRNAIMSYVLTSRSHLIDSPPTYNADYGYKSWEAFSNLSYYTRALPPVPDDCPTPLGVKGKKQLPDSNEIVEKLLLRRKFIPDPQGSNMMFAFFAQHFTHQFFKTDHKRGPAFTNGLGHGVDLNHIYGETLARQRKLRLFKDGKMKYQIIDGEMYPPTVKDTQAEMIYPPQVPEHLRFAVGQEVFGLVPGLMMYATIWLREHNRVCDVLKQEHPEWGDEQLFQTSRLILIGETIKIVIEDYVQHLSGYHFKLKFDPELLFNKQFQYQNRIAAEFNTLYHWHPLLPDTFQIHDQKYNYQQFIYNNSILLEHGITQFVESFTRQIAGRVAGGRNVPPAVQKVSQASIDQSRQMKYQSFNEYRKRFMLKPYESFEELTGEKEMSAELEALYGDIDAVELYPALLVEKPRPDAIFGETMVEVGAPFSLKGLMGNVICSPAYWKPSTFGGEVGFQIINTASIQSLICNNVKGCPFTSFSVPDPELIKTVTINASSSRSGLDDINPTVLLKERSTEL

[5] = biological target: T3, Prostaglandin G/H synthase 2 (Homo sapiens) (UniProt P35354); test: Inhibition of human COX2 at 10 uM
T3 sequence (whole entry): T2 sequence (P35354 whole entry)

[6] = biological target: T4, Prostaglandin G/H synthase 1 (Bos taurus) (UniProt O62664); test: Inhibition of bovine COX1 at 10 uM
T4 sequence (whole entry): T1 sequence (O62664 whole entry)

For `CC1(C)Cc2c(-c3ccccc3)c(-c3ccc(Cl)cc3)c(CC(=O)O)n2C1` [LICOFELONE], the IC50 [1] was 180 nM.

Compound `Clc1ccc(-c2cn[se]c2-c2ccc(Cl)cc2)cc1` has an IC50 [2] of 200 nM.

With `COc1ccc(-c2cn[se]c2-c2ccc(OC)cc2)cc1` the inhibition [3] was 14%, the IC50 [2] was 6 nM and the IC50 [4] was 8000 nM.

In the case of `Cc1ccc(-c2cc(C(F)(F)F)nn2-c2ccc(S(N)(=O)=O)cc2)cc1`, the inhibition [3] is reported as 27%.

Compound `COc1ccc(-c2cn[se]c2-c2ccc(Cl)cc2)cc1` has an IC50 [2] of 10 nM and an inhibition [5] of 16%.

For `COc1ccc(-c2[se]ncc2-c2ccc(C)cc2)cc1`, the IC50 [2] was 20 nM.

Compound `CS(=O)(=O)c1ccc(-c2[se]ncc2-c2ccc(F)cc2)cc1` has an inhibition [3] of 34%, an inhibition [6] of 38% and an IC50 [1] of 8000 nM. It also gave an IC50 [4] of 600 nM.

`O=c1c2ccccc2[se]n1-c1ccccc1` [EBSELEN] showed an IC50 [2] of 2100 nM.

`Cc1ccc(-c2[se]ncc2-c2ccc(Cl)cc2)cc1` gave an IC50 [2] of 50 nM.

Work on `CC(Cc1ccc(O)c(O)c1)C(C)Cc1ccc(O)c(O)c1` (stereo unspecified) [NORDIHYDROGUAIARETIC ACID] yielded an inhibition [6] of 31%, an inhibition [5] of 10% and an IC50 [1] of 1000 nM.

With `COc1ccc(-c2[se]ncc2-c2ccc(Cl)cc2)cc1` the IC50 [2] was 20 nM and the inhibition [5] was 17%.

`Cc1ccc(-c2cn[se]c2-c2ccc(Cl)cc2)cc1` showed an IC50 [2] of 200 nM.
